The values that follow come from US4534979A, “Polyene compounds useful in the treatment of psoriasis and allergic responses” (USV Pharmaceutical Corp., priority 1984, dated 1985).

In assay [1] the test system is mouse epidermal cell culture. As to the kind of experiment: mouse epidermal cell culture, anti-differentiation activity (Kreyberg staining and nuclei enumeration). The class given is cell-based. Further details: key to culture staining by the Kreyberg technique, score (maximum differentiation 10): Kreyberg staining score; 10 = maximum differentiation; key to nuclei enumeration, score (maximum differentiation 0): nuclei enumeration score; 0 = maximum differentiation. The note with it: 12 ug/ml; for culture staining by the Kreyberg technique, score (maximum differentiation 10): first number of the ratio; for nuclei enumeration, score (maximum differentiation 0): second number of the ratio. The text has this:
(§1) Compounds of this invention are active against various skin disorders, such as acne and psoriasis, when tested according to models considered to be predictive of the clinical condition in humans. The models used were the rhino mouse procedure (Kligman, et al., J. Investigative Dermatology 73, 354 (1979)), the rabbit comedolytic procedure (Mills O. H., Kligman A. M.: Assay of Comedolytic Agents in the Rabbit Ear, Animal Models in Dermatology; Relevance to Human Dermatopharmacology and Dermatotoxicology,edited by H. I. Maibach, New York Churchill-Livingston, 1975, pp. 176-183) and the mouse epidermal cell culture procedure (Marcelo, et al., J. Cell Biol., 79, 356 (1978). Testing was done comparatively against standard retinoids known to be effective in these disorders and against a known α-methyl retinoid (2,7-dimethyl-9-(2,6,6-trimethyl-1-cyclohexene-1-yl)-2,3,6,8-nonatetraenoic acid, referred to as DTCNA).
The ratios in the table represent scoring of two measured parameters, culture staining by the Kreyberg technique (maximum differentiation 10) and nuclei enumeration (maximum differentiation 0). Thus the highest possible anti-differentiative activity would be given by the ratio 0/10.

Assay [2] deals with mouse epidermal cell culture. The assay can be described thus: mouse epidermal cell culture, cell proliferation by uptake of tritiated thymidine into DNA. The class given is cell-based. The settings on record: for percentage uptake in comparison to the standards (TRA, CRA): all time points; for activity at 12 µg/mL: Mus musculus, read-out: percentage uptake of tritiated thymidine relative to vehicle control (100%).

Assay [3] relates to 5-Lipoxygenese pathway (LOX, Rat PMN). As to the kind of experiment: lipoxygenase pathway inhibition assay (14C-arachidonic acid oxidation by neutrophil homogenate). The settings on record: concentration required for inhibition of the 5-Lipoxygenese pathway; read-out: LOX, Rat PMN (I50). The assay is classed as biochemical.
The test system of assay [4] is rhino mouse utriculi (pseudocomedones). The assay can be described thus: rhino mouse procedure. The settings on record: rhino mouse model, concentration 0.05%. The assay is classed as in vivo.
Description: as §1
(§2) Activity equal to or greater than the standards and the known compound was shown by 2,5,9-trimethyl-11-(2,6,6-trimethyl-1-cyclohexene-1-yl)-2,4,6,8,10-undecapentaenoic acid (TTCUA).

For assay [5], the system named is rabbit ear comedones. As to the kind of experiment: rabbit comedolytic procedure (rabbit ear model). The note with it: concentration of 0.05%, compared with TRA. The assay is classed as in vivo.
Description: as §1, §2

The mark [6] stands for this setting: 72 h, 12 ug/ml, day 3 of culture exposure to drug.
[7] abbreviates: 120 h, 12 ug/ml, day 5 of culture exposure to drug.
Setting [8] is: 240 h, 12 ug/ml, day 10 of culture exposure to drug.

Like-named read-outs stand apart in the source and are kept apart here.

For `CC1=C(/C=C/C(C)=C/C=C/C(C)=C\C(=O)O)C(C)(C)CCC1` [CRA], the “culture staining by the Kreyberg technique, score (maximum differentiation 10)” value (“culture staining … (maximum differentiation 10)” below) in assay [1] (day 3), in assay [1] (day 6) and in assay [1] (day 10) was 2 each time. The entries for the “nuclei enumeration, score (maximum differentiation 0)” value in assay [1] (day 3), in assay [1] (day 6) and in assay [1] (day 10) were 7, 7 and 6.5, respectively. In addition, the “percentage uptake of tritiated thymidine relative to vehicle control (100%)” value in assay [2] (12 ug/ml, day 3 of culture exposure to drug) is 47%; in assay [2] (12 ug/ml, day 5 of culture exposure to drug), 75%; in assay [2] (12 ug/ml, day 10 of culture exposure to drug) it was 64%.

In the case of `CC(C=CC1=C(C)CCCC1(C)C)=CC=CC=C(C)C(=O)O` [DTCNA], the “culture staining … (maximum differentiation 10)” value worked out at 3 in assay [1] (day 3), 2 in assay [1] (day 6) and 2 in assay [1] (day 10). The “nuclei enumeration, score (maximum differentiation 0)” value is given as 6 in assay [1] (day 3), 6 in assay [1] (day 6) and 5 in assay [1] (day 10). In addition, the “percentage uptake in comparison to the standards (TRA, CRA)” value in assay [2] (12 ug/ml) was “about the same”. Besides, the figures for the activity at 12 µg/mL in assay [2] (setting [6]), in assay [2] (setting [7]) and in assay [2] (setting [8]) were 53%, 61% and 60%, respectively.

As to `CC\C(=C/C=C(C)/C=C/C=C(C)/C=C/C1=C(C)CCCC1(C)C)C(=O)O` [Example 3B, 5,9-Dimethyl-2-Ethyl-11-(2,6,6-Trimethyl-1-Cyclohexen-1-yl)-2,4,6,8,10-Undecapentaenoic Acid], the IC50 in assay [3] was determined as 13 µM.

Regarding `CC(/C=C/c1ccc(OCc2ccccc2)cc1)=C\C=C\C(=O)O` [Example 6, 7-(4-Benzyloxyphenyl)-5-Methyl-Hepta-2,4,6-Trienoic Acid], the IC50 in assay [3] turned out to be 2 µM.

`COc1cc(C)c(/C=C/C(C)=C/C=C/C(=O)O)c(C)c1C` [Example 8, 7-(4-Methoxy-2,3,6-Trimethylphenyl)-5-Methyl-Hepta-2,4,6-Trienoic Acid]: the IC50 in assay [3] was determined as 10 µM.

With `CC1=C(/C=C/C(C)=C/C=C/C(C)=C/C(=O)O)C(C)(C)CCC1` [TRA, trans retinoic acid], the entries for the “culture staining … (maximum differentiation 10)” value in assay [1] (day 3), in assay [1] (day 6) and in assay [1] (day 10) were 3, 3 and 2, respectively. Further, the “nuclei enumeration, score (maximum differentiation 0)” value in assay [1] (day 3) worked out at 5; in assay [1] (day 6), 5; in assay [1] (day 10), 6. Also, in assay [3], the IC50 came out at 90 µM. Also, the activity at 12 µg/mL came out at 77% in assay [2] (72 h), 53% in assay [2] (120 h) and 36% in assay [2] (240 h).

On to `CC1=C(/C=C/C(C)=C/C=C/C(C)=C/C=C(\C)C(=O)O)C(C)(C)CCC1` [TTCUA, 2,5,9-trimethyl-11-(2,6,6-trimethyl-1-cyclohexene-1-yl)-2,4,6,8,10-undecapentaenoic acid], for which, in assay [4], the “epidermal hyperplasia of the skin” value is recorded as “moderate epidermal hyperplasia”. Moreover, the “ability to reduce the amount of horny impaction in the utriculi” value in assay [4] (compared with TRA) was “equal to TRA”. Besides, in assay [4] (compared with TRA), the “ability to reduce the size of utriculi (pseudocomedones)” value is given as “equal to TRA”. The skin wrinkling result in assay [4] (versus untreated control animals) is reported as “significantly less wrinkling”. For the same molecule, the “culture staining … (maximum differentiation 10)” value in assay [1] (day 3) was 2; in assay [1] (day 6), 0.5; in assay [1] (day 10) it was 1. Moreover, the “nuclei enumeration, score (maximum differentiation 0)” value in assay [1] (day 3) amounted to 6; in assay [1] (day 6), 8.5; in assay [1] (day 10) it was 7.5. For the same molecule, in assay [1] (mouse epidermal cell culture), the anti-differentiation activity entry is “more active in both parameters than the two standards and high”. Besides, in assay [2] (12 ug/ml), the “percentage uptake in comparison to the standards (TRA, CRA)” value is on record as “up to five fold less”. The activity at 12 µg/mL in assay [2] (setting [6]) came to 31%; in assay [2] (setting [7]), 15%; in assay [2] (setting [8]), 21%. For the same molecule, in assay [5], the “ability to reduce comedone size” value was “equal to trans retinoic acid (TRA)”.
